Results published in ChEMBL document CHEMBL6114983 (Bioorg Med Chem, 2025).

Biological target: Glutaminyl-peptide cyclotransferase (Homo sapiens, UniProt Q16769)
Sequence (Q16769 whole entry): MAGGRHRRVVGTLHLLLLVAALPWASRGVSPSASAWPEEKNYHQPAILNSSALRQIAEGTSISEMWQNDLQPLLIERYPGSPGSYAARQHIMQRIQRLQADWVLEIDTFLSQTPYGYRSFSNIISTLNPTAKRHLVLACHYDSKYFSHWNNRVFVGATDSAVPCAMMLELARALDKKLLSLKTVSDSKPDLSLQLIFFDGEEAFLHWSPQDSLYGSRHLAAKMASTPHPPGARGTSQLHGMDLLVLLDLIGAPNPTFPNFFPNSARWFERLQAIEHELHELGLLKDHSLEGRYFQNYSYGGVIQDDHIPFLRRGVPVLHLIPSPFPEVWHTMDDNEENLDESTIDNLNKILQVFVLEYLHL

`COc1ccc(N(C(=S)NCCCn2cncc2C)C2CCN(C)CC2)cc1OC` gave an IC50 of 3.36 nM.
